# Assay results reported in patent publication US12077503B2, “Substituted cyclic amides and their use as herbicides” (FMC CORPORATION, priority 2015, dated 2024).
# What was measured:
# Format in all cases: in vivo
# corn (Zea mays) = test: Test A postemergence; details: postemergence, 0 to 100 scale (0 no effect, 100 complete control)
# Procedure, shortened: (§1)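 Seeded soil received test chemicals as a preemergence directed spray, and seedlings at one to two leaves, 2–10 cm tall, received them postemergence, in a non-phytotoxic, surfactant-containing solvent mixture. Pots were held in a greenhouse for approximately 10 d, then rated for injury from 0, no effect, to 100, complete control.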
# [1] = system: giant foxtail (Setaria faberii); test: Test A postemergence; details: postemergence, 0 to 100 scale (0 no effect, 100 complete control)
# Procedure, shortened: as §1
# [2] = system: ryegrass, Italian (Italian ryegrass, Lolium multiflorum); test: Test A postemergence; details: postemergence, 0 to 100 scale (0 no effect, 100 complete control)
# Procedure, shortened: as §1
# [3] = system: Galium (catchweed bedstraw, Galium aparine); test: Test A postemergence; details: postemergence, 0 to 100 scale (0 no effect, 100 complete control)
# Procedure, shortened: as §1
# [4] = system: barnyardgrass (Echinochloa crus-galli); test: Test A postemergence; details: postemergence, 0 to 100 scale (0 no effect, 100 complete control)
# Procedure, shortened: as §1
# [5] = system: ragweed (common ragweed, Ambrosia elatior); test: Test A postemergence; details: postemergence, 0 to 100 scale (0 no effect, 100 complete control)
# Procedure, shortened: as §1
# Kochia (Kochia scoparia) [6] = test: Test A postemergence; details: postemergence, 0 to 100 scale (0 no effect, 100 complete control)
# Procedure, shortened: as §1
# [7] = system: wheat (Triticum aestivum); test: Test A postemergence; details: postemergence, 0 to 100 scale (0 no effect, 100 complete control)
# Procedure, shortened: as §1
# [8] = system: blackgrass (Alopecurus myosuroides); test: Test A postemergence; details: postemergence, 0 to 100 scale (0 no effect, 100 complete control)
# Procedure, shortened: as §1
# [9] = system: pigweed (Amaranthus retroflexus); test: Test A postemergence; details: postemergence, 0 to 100 scale (0 no effect, 100 complete control)
# Procedure, shortened: as §1
# soybean (Glycine max) = test: Test C preemergence; details: for Plant response rating, Soybean: scale 0 to 100, 0 no effect, 100 complete control
# Text: Seeds of plant species selected from blackgrass (Alopecurus myosuroides), ryegrass, Italian (Italian ryegrass, Lolium multiflorum), wheat (winter wheat, Triticum aestivum), Galium (catchweed bedstraw, Galium aparine), corn (Zea mays), crabgrass, large (large crabgrass, Digitaria sanguinalis), foxtail, giant (giant foxtail, Setaria faberii), johnsongrass (Sorghum halepense), lambsquarters (Chenopodium album), morningglory (Ipomoea coccinea), nutsedge, yellow (yellow nutsedge, Cyperus esculentus), pigweed (Amaranthus retroflexus), ragweed (common ragweed, Ambrosia elatior), soybean (Glycine max), barnyardgrass (Echinochloa crus-galli), oilseed rape (Brassica napus), waterhemp (common waterhemp, Amaranthus rudis) and velvetleaf (Abutilon theophrasti) were planted into a blend of loam soil and sand and treated preemergence with test chemicals formulated in a non-phytotoxic solvent mixture which included a surfactant.
# At the same time, plants selected from these crop and weed species and also Kochia (Kochia scoparia), oat, wild (wild oat, Avena fatua), and chickweed (common chickweed, Stellaria media) were planted in pots containing Sunshine Redi-Earth® planting medium comprising spaghnum peat moss, vermiculite, starter nutrients and dolomitic limestone and treated with postemergence applications of test chemicals formulated in the same manner. Plants ranged in height from 2 to 18 cm (1- to 4-leaf stage) for postemergence treatments. Treated plants and controls were maintained in a greenhouse for 13 to 15 d, after which time all species were compared to controls and visually evaluated. Plant response ratings, summarized in Table C, are based on a scale of 0 to 100 where 0 is no effect and 100 is complete control. A dash (-) response means no test result.
# [10] = system: giant foxtail (Setaria faberii); test: Test A preemergence
# Procedure, shortened: as §1
# [11] = system: ryegrass, Italian (Italian ryegrass, Lolium multiflorum); test: Test A preemergence; details: preemergence
# Procedure, shortened: as §1
# [12] = system: barnyardgrass (Echinochloa crus-galli); test: Test A preemergence
# Procedure, shortened: as §1
# [13] = system: ragweed (common ragweed, Ambrosia elatior); test: Test A preemergence; details: preemergence
# Procedure, shortened: as §1
# Kochia (Kochia scoparia) [14] = test: Test A preemergence
# Procedure, shortened: as §1
# [15] = system: pigweed (Amaranthus retroflexus); test: Test A preemergence; details: preemergence
# [16] = system: ducksalad (Heteranthera limosa); test: Test B flooded paddy test; details: Flood, 500 g ai/ha; 0 to 100 scale where 0 is no effect and 100 is complete control; 13 to 15 d
# Procedure, shortened: (§2)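 Greenhouse paddy pots with 2-leaf stage plants received compound by direct addition to floodwater 3 cm deep, kept at that level. Scored visually at 13–15 d versus controls (0 no effect; 100 complete control).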
# rice (Oryra sativa) = test: Test B flooded paddy test; details: Flood, 500 g ai/ha; 0 to 100 scale where 0 is no effect and 100 is complete control; 13 to 15 d
# Procedure, shortened: as §2
# [17] = system: barnyardgrass (Echinochloa crus-galli); test: Test B flooded paddy test; details: Flood, 500 g ai/ha; 0 to 100 scale where 0 is no effect and 100 is complete control; 13 to 15 d
# Procedure, shortened: as §2
# [18] = system: sedge, umbrella (small-flower umbrella sedge, Cyperus difformis); test: Test B flooded paddy test; details: Flood, 500 g ai/ha; 0 to 100 scale where 0 is no effect and 100 is complete control; 13 to 15 d
# Procedure, shortened: as §2
# [19] = 125 g ai/ha, visual injury after approximately 10 d
# [20] = 500 g ai/ha, visual injury, approx. 10 d
# [21] = 125 g ai/ha, visual rating after approx. 10 d
# [22] = 125 g ai/ha, Preemergence, visual injury after approximately 10 d, 0 to 100 scale where 0 is no effect and 100 is complete control
# [23] = 500 g ai/ha, preemergence, 0 to 100 scale, 0 = no effect, 100 = complete control
# [24] = 125 g ai/ha, visual rating after approx. 10 d, 0 to 100 scale where 0 is no effect and 100 is complete control
# [25] = 500 g ai/ha, 0 to 100 scale, 0 = no effect, 100 = complete control
compound,measurement,setting,value
O=C1NCC(c2cccc(OC(F)(F)C(F)F)c2)C1C(=O)Nc1ccccc1F (racemic) [Compound 695],"Plant response rating, Corn",corn (Zea mays); [19],80
same,"Plant response rating, Corn",corn (Zea mays); [20],80
same,"Plant response rating, Foxtail, Giant",[1]; [19],80
same,"Plant response rating, Foxtail, Giant",[1]; [20],80
same,"Plant response rating, Ryegrass, Italian",[2]; [19],0
same,"Plant response rating, Ryegrass, Italian",[2]; [20],20
same,"Plant response rating, Galium",[3]; [19],50
same,"Plant response rating, Galium",[3]; [20],40
same,"Plant response rating, Barnyardgrass",[4]; [21],80
same,"Plant response rating, Barnyardgrass",[4]; [20],90
same,"Plant response rating, Ragweed",[5]; [19],20
same,"Plant response rating, Ragweed",[5]; [20],40
same,"Plant response rating, Kochia",Kochia (Kochia scoparia) [6]; [19],30
same,"Plant response rating, Kochia",Kochia (Kochia scoparia) [6]; [20],50
same,"Plant response rating, Wheat",[7]; [19],20
same,"Plant response rating, Wheat",[7]; [20],40
same,"Plant response rating, Blackgrass",[8]; [21],0
same,"Plant response rating, Blackgrass",[8]; [20],40
same,"Plant response rating, Pigweed",[9]; [19],20
same,"Plant response rating, Pigweed",[9]; [20],30
same,"Plant response rating (scale of 0 to 100), Soybean","soybean (Glycine max); 31 g ai/ha, 0 is no effect, 100 is complete control",0
same,"Plant response rating, Soybean",soybean (Glycine max); 62 g ai/ha,0
same,"Plant response rating, Soybean",soybean (Glycine max); 125 g ai/ha,0
same,"Plant response rating, Soybean",soybean (Glycine max); 250 g ai/ha,0
same,"Plant response rating, Foxtail, Giant",[10]; [22],90
same,"Plant response rating, Foxtail, Giant",[10]; [23],90
same,"Plant response rating, Ryegrass, Italian",[11]; [24],40
same,"Plant response rating, Ryegrass, Italian",[11]; [25],30
same,"Plant response rating, Barnyardgrass",[12]; [22],90
same,"Plant response rating, Barnyardgrass",[12]; [23],90
same,"Plant response rating, Ragweed",[13]; [24],20
same,"Plant response rating, Ragweed",[13]; [25],40
same,"Plant response rating, Kochia",Kochia (Kochia scoparia) [14]; [22],30
same,"Plant response rating, Kochia",Kochia (Kochia scoparia) [14]; [23],90
same,"Plant response rating, Pigweed",[15]; [24],30
same,"Plant response rating, Pigweed",[15]; [25],40
same,"Plant response rating, Ducksalad",[16],100
same,"Plant response rating, Rice",rice (Oryra sativa),0
same,"Plant response rating, Barnyardgrass",[17],80
same,"Plant response rating, Sedge, Umbrella",[18],0
